According to patent US9850221B2, “Sulfated and unsulfated flavonoid oligomers as cancer therapeutics” (VIRGINIA COMMONWEALTH UNIVERSITY, priority 2013, dated 2017):

Legend:
[1] = test system: HT-29 cells; test: Secondary (2°) and tertiary (3°) colonosphere assay, HT-29 (Screen 2); format: cell-based, human; conditions: no NSGM in 2° and 3° growth assays
Protocol: Secondary (2°) and Tertiary (3°) Colonosphere Assay. For secondary colonospheres, the 96-well plate of primary spheres was centrifuged at speed of 1000 rpm for 1 min and the supernatant was removed. Spheres that settled at the base of the plate were trypsinized with 20 μL/well and single cell suspension was prepared using vigorous mechanical dissociation. The numbers of viable cell were counted with 1:5 ratio of cell:trypan blue and then re-plated at 100 cells/[…] in SCM media in a low adhesion plate. No further treatment with NSGMs was performed. Numbers of spheres were counted as above on day 5. The same method was repeated for tertiary spheres.
The 11 sulfated NSGMs were then studied for their effect on 2° and 3° sphere formation (HT-29 and HCT-116) in Screen 2. By design, this screen reflects a test of true self-renewability of CSCs.^2,3 Single cell suspension obtained from primary spheres formed above was then cultured in the absence of NSGM.

[2] = test system: CSC markers CD44, CD133, EpCAM, LGR5, CXCR-4; test: Western blot of CSC markers in HT-29 spheroids; format: cell-based, human; conditions: HT-29 spheroids, 100 μM, Western blot densitometry vs vehicle
Protocol: Western Blotting Analysis. Western blot analysis was performed according to the standard protocol described in the literature. Briefly, HT-29 cells were plated in serum-free SCM in a low adhesion 6-well plate to obtain spheroids. Mature spheroids were treated on day 4 after plating, with vehicle or NSGMs for indicated time and cells were solubilized in lysis buffer (20 mM Na3PO4, 100 mM NaCl, 2 mM EDTA, 1% Nonidet P-40, 2.5 mM Na3VO4) containing protease (Roche) as well as phosphatase inhibitor cocktails (Sigma). Following centrifugation at 14,000 g for 15 min, the supernatant was used for Western blot analysis. In all analyses, protein concentration was determined by the Bio-Rad Protein Assay kit (Bio-Rad). Approximately 25-50 μg of protein was separated by polyacrylamide gel electrophoresis and was transferred to PVDF membrane (Bio-Rad). Blocking was done with 5% low fat milk powder for 1 hr followed by overnight incubation with primary antibody (dilution 1:1000): anti-CD44 (Cell Signaling), anti-EpCAM (Cell Signaling), anti-LGR5 (Origene), anti-CD133 ((Miltenyi Biotec), anti-CXCR4 (Abeam), anti-OCT4 (Cell Signaling), anti-BMI-1 (Millipore), anti-c-MYC (Millipore) and anti-CK20 (Abeam). This was followed by incubation with appropriate secondary antibody and protein bands were visualized using the enhanced chemiluminescence detection system and imaged with LAS-3000 Imaging System (FUJIFILM). Densitometry was determined by AIDA image analyzer software (Raytest) and results were calculated as relative intensity compared to control. All experiments were performed at least three times.

SMILES: O=c1c(OS(=O)(=O)[O-])c(-c2ccc(OS(=O)(=O)[O-])c(OS(=O)(=O)[O-])c2)oc2cc(OS(=O)(=O)[O-])cc(OCCOc3cc(-c4oc5cc(OS(=O)(=O)[O-])cc(OCCOc6cc(OS(=O)(=O)[O-])cc7oc(-c8ccc(OS(=O)(=O)[O-])c(OS(=O)(=O)[O-])c8)c(OS(=O)(=O)[O-])c(=O)c67)c5c(=O)c4OS(=O)(=O)[O-])ccc3OS(=O)(=O)[O-])c12.[Na+].[Na+].[Na+].[Na+].[Na+].[Na+].[Na+].[Na+].[Na+].[Na+].[Na+] [G4.1]
- Screen 2 outcome (2° and 3° spheroid growth inhibition) [1]: completely failed
- reduction of expression of CSC markers (CD44, CD133, EpCAM, LGR5, CXCR-4) [2]: no effect
